In patent publication US20210382058A1, “PATIENT SELECTION FOR TREATMENT OF MYC POSITIVE CANCERS WITH INDENOISOQUINOLINES” (Purdue Research Foundation, priority 2020, published 2021):
Read-outs that look alike come from different tables or passages of the source.

What was measured:
human topoisomerase I = target: T1, human topoisomerase I (Homo sapiens, UniProt P11387); conditions: relative topoisomerase I inhibition levels, previously determined, six levels (0 - 5, +++++ = 5); cited from earlier work
T1 sequence (P11387 1-765): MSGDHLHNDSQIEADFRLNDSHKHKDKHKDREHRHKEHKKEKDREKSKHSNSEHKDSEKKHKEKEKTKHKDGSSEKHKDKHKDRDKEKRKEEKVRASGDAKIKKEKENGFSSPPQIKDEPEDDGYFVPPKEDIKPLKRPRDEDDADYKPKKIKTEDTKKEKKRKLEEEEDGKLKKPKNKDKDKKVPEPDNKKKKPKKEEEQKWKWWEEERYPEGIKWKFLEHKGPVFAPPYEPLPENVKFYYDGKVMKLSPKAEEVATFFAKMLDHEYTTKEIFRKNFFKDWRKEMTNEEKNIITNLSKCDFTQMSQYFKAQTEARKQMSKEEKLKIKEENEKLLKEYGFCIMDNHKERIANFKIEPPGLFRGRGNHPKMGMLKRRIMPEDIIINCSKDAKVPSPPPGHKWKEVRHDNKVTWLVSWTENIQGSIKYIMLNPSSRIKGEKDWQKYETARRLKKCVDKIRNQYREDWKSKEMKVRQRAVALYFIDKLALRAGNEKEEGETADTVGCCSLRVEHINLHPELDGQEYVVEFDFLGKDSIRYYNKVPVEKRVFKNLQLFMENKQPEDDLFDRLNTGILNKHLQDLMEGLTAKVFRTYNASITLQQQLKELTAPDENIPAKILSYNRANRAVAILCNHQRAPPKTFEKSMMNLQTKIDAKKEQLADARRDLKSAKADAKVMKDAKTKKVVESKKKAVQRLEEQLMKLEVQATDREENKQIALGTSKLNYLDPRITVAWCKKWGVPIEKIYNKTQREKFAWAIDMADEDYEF

NCI-60 cancer cell lines = assay: NCI-60 cancer cell line drug screen (GI50, MGM); format: cell-based, human; conditions: Homo sapiens; for GI50: read-out: Antiproliferative Activities [GI50 (μM)]
Method: Cancer cells were incubated with the test compounds at five concentrations ranging from 100 μM to 10 nM for 48 h. […] The approximate average of GI50 values across the entire panel of NCI-60 cancer cell lines for each compound was recorded as the MGM value.

[1] = test system: MYC protein expression in MCF-7 breast cancer cells; assay: Western blotting of MYC protein level in MCF-7 cells; format: cell-based, human; conditions: Homo sapiens, MCF7; western blotting, MCF-7 cells, 0.5, 1, 2, and 4 μM, 24 hours; read-out: MYC Inhibition
In short: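 Immunoblotting with ECL detection quantified MYC, with GAPDH (1:2000) as reference and anti-MYC at 1:1000.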

For `COc1ccc2c(c1)C(=O)c1c-2n(CCCN2CCOCC2)c(=O)c2ccccc12` [Compound 19], which “Top1 Inhibiton” value (human topoisomerase I) is on record?
The value was “+++ (strong inhibition, +++, MYC expression inhibited at 0.5 to 1.0 μM)”.

And the GI50 (NCI-60 cancer cell lines; 786-0, Renal Cancer, 786-0)?
Its GI50 is 1.78 µM.

And the GI50 (NCI-60 cancer cell lines; A498, Renal Cancer, A498)?
The GI50 was 1.64 µM.

And the GI50 (NCI-60 cancer cell lines; A549, Non-Small Cell Lung Cancer, A549/ATCC)?
Its GI50 is 1.96 µM.

What about the GI50 (NCI-60 cancer cell lines; ACHN, Renal Cancer, ACHN) of the same molecule?
The GI50 was 1.67 µM.

What about the GI50 (NCI-60 cancer cell lines; BT-549, Breast Cancer, BT-549) of the same molecule?
Its GI50 is 4.11 µM.

And the GI50 (NCI-60 cancer cell lines; CAKI-1, Renal Cancer, CAKI-1)?
The GI50 was 3.17 µM.

And the GI50 (NCI-60 cancer cell lines; CCRF-CEM, Leukemia, CCRF-CEM)?
The GI50 was 1.57 µM.

What about the GI50 (NCI-60 cancer cell lines; COLO 205, Colon Cancer, COLO 205) of the same molecule?
The GI50 was 1.74 µM.

And the GI50 (NCI-60 cancer cell lines; DU-145, Prostate Cancer, DU-145)?
The GI50 was 2.31 µM.

What about the GI50 (NCI-60 cancer cell lines; EKVX, Non-Small Cell Lung Cancer, EKVX) of the same molecule?
The GI50 was 4.91 µM.

What about the GI50 (NCI-60 cancer cell lines; HCC 2998, Colon Cancer, HCC-2998) of the same molecule?
Its GI50 is 3.44 µM.

And the GI50 (NCI-60 cancer cell lines; HCT-15, Colon Cancer, HCT-15)?
The GI50 was 2.9 µM.

What about the GI50 (NCI-60 cancer cell lines; HCT-116, Colon Cancer, HCT-116) of the same molecule?
The GI50 was 1.27 µM.

And the GI50 (NCI-60 cancer cell lines; HL-60, Leukemia, HL-60(TB))?
The GI50 was 4.28 µM.

And the GI50 (NCI-60 cancer cell lines; HOP-62, Non-Small Cell Lung Cancer, HOP-62)?
The GI50 was 1.41 µM.

And the GI50 (NCI-60 cancer cell lines; HOP-92, Non-Small Cell Lung Cancer, HOP-92)?
Its GI50 is 4.47 µM.

What about the GI50 (NCI-60 cancer cell lines; HT-29, Colon Cancer, HT29) of the same molecule?
Its GI50 is 2.48 µM.

What about the GI50 (NCI-60 cancer cell lines; Hs-578T, Breast Cancer, HS 578T) of the same molecule?
The GI50 was 8.95 µM.

What about the GI50 (NCI-60 cancer cell lines; K562, Leukemia, K-562) of the same molecule?
The GI50 was 5.13 µM.

What about the GI50 (NCI-60 cancer cell lines; KM12, Colon Cancer, KM12) of the same molecule?
Its GI50 is 3.8 µM.

And the GI50 (NCI-60 cancer cell lines; LOX IMVI, Melanoma, LOX IMVI)?
Its GI50 is 1.34 µM.

What about the GI50 (NCI-60 cancer cell lines; Leukemia, SR) of the same molecule?
The GI50 was 0.29 µM.

And the GI50 (NCI-60 cancer cell lines; MCF7, Breast Cancer, MCF7)?
The GI50 was 0.2 µM.

What about the GI50 (NCI-60 cancer cell lines; MDA-MB-231, Breast Cancer, MDA-MB-231/ATCC) of the same molecule?
The GI50 was 11.2 µM.

What about the GI50 (NCI-60 cancer cell lines; MDA-MB-435, Melanoma, MDA-MB-435) of the same molecule?
Its GI50 is 4.67 µM.

What about the GI50 (NCI-60 cancer cell lines; MOLT-4, Leukemia, MOLT-4) of the same molecule?
Its GI50 is 0.87 µM.

And the GI50 (NCI-60 cancer cell lines; Malme-3M, Melanoma, MALME-3M)?
Its GI50 is 4.49 µM.

And the GI50 (NCI-60 cancer cell lines; Melanoma, M14)?
The GI50 was 2.85 µM.

And the GI50 (NCI-60 cancer cell lines; NCI-H23, Non-Small Cell Lung Cancer, NCI-H23)?
Its GI50 is 3.1 µM.

And the GI50 (NCI-60 cancer cell lines; NCI-H226, Non-Small Cell Lung Cancer, NCI-H226)?
Its GI50 is 2.79 µM.

And the GI50 (NCI-60 cancer cell lines; NCI-H322M, Non-Small Cell Lung Cancer, NCI-H322M)?
Its GI50 is 5.44 µM.

What about the GI50 (NCI-60 cancer cell lines; NCI-H460, Non-Small Cell Lung Cancer, NCI-H460) of the same molecule?
Its GI50 is 0.44 µM.

What about the GI50 (NCI-60 cancer cell lines; NCI-H522, Non-Small Cell Lung Cancer, NCI-H522) of the same molecule?
The GI50 was 1.06 µM.

What about the GI50 (NCI-60 cancer cell lines; OVCAR-3, Ovarian Cancer, OVCAR-3) of the same molecule?
Its GI50 is 2.7 µM.

What about the GI50 (NCI-60 cancer cell lines; OVCAR-4, Ovarian Cancer, OVCAR-4) of the same molecule?
The GI50 was 3.13 µM.

What about the GI50 (NCI-60 cancer cell lines; OVCAR-5, Ovarian Cancer, OVCAR-5) of the same molecule?
The GI50 was 6.31 µM.

And the GI50 (NCI-60 cancer cell lines; OVCAR-8, Ovarian Cancer, OVCAR-8)?
The GI50 was 3.11 µM.

And the GI50 (NCI-60 cancer cell lines; Ovarian Cancer, NCl/ADR-RES)?
The GI50 was 3.14 µM.

And the GI50 (NCI-60 cancer cell lines; Prostate Cancer, PC-3)?
Its GI50 is 19.5 µM.

What about the GI50 (NCI-60 cancer cell lines; RPMI-8226, Leukemia, RPMI-8226) of the same molecule?
Its GI50 is 1.85 µM.

What about the GI50 (NCI-60 cancer cell lines; RXF 393, Renal Cancer, RXF 393) of the same molecule?
Its GI50 is 7.16 µM.

And the GI50 (NCI-60 cancer cell lines; Renal Cancer, U0-31)?
The GI50 was 0.42 µM.

What about the GI50 (NCI-60 cancer cell lines; SF-268, CNS Cancer, SF-268) of the same molecule?
Its GI50 is 1.75 µM.

What about the GI50 (NCI-60 cancer cell lines; SF-295, CNS Cancer, SF-295) of the same molecule?
Its GI50 is 1.27 µM.

And the GI50 (NCI-60 cancer cell lines; SF-539, CNS Cancer, SF-539)?
The GI50 was 1.96 µM.

What about the GI50 (NCI-60 cancer cell lines; SK-MEL-2, Melanoma, SK-MEL-2) of the same molecule?
The GI50 was 19.5 µM.

And the GI50 (NCI-60 cancer cell lines; SK-MEL-5, Melanoma, SK-MEL-5)?
Its GI50 is 1.5 µM.

And the GI50 (NCI-60 cancer cell lines; SK-MEL-28, Melanoma, SK-MEL-28)?
The GI50 was 8.03 µM.

What about the GI50 (NCI-60 cancer cell lines; SK-OV-3, Ovarian Cancer, SK-OV-3) of the same molecule?
Its GI50 is 2.67 µM.

What about the GI50 (NCI-60 cancer cell lines; SN12C, Renal Cancer, SN12C) of the same molecule?
The GI50 was 4.1 µM.

And the GI50 (NCI-60 cancer cell lines; SNB-19, CNS Cancer, SNB-19)?
Its GI50 is 2.13 µM.

And the GI50 (NCI-60 cancer cell lines; SNB-75, CNS Cancer, SNB-75)?
The GI50 was 3.63 µM.

What about the GI50 (NCI-60 cancer cell lines; SW-620, Colon Cancer, SW-620) of the same molecule?
The GI50 was 1.68 µM.

What about the GI50 (NCI-60 cancer cell lines; T47D, Breast Cancer, T-47D) of the same molecule?
Its GI50 is 1.07 µM.

What about the GI50 (NCI-60 cancer cell lines; TK-10, Renal Cancer, TK-10) of the same molecule?
The GI50 was 4.63 µM.

And the GI50 (NCI-60 cancer cell lines; U-251, CNS Cancer, U251)?
The GI50 was 1.72 µM.

What about the GI50 (NCI-60 cancer cell lines; UACC-62, Melanoma, UACC-62) of the same molecule?
Its GI50 is 1.58 µM.

And the GI50 (NCI-60 cancer cell lines; UACC-257, Melanoma, UACC-257)?
Its GI50 is 6.6 µM.

And the mean GI50 across NCI-60 panel (MGM) (NCI-60 cancer cell lines; average of GI50 values across the entire panel of NCI-60 cancer cell lines)?
The mean GI50 across NCI-60 panel (MGM) was 2570 nM.

And the minimal effective concentration [1]?
The minimal effective concentration was 2 µM.
